Measured values as given in PubChem BioAssay AID179 (DTP/NCI, 2004).
“And” between values parts separate entries of the source, which are not always exact repeats. Identical values can stand only once. The source made the active and inactive calls.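 The calls were made as follows: active = compounds giving half or more protection of infected cells from virus-caused growth loss, again on retest; inactive = the rest.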

System: CEM cells HIV-1 protection, formazan growth assay
Assay: NCI AIDS Antiviral Assay
Settings: for IC50: measured here: growth of uninfected CEM cells
Procedure, shortened: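 Human CEM cells, uninfected and HIV-1-infected, exposed to five drug concentrations; growth measured by soluble formazan assay and scored as percent protection from infection, with protecting compounds retested.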

SMILES	EC50 [µM]	IC50	outcome
O=C1NC(O)c2cc(CO)ccc2O1 (stereo not given)	> 200	95.5 µM	
N#C/C(C(=O)Nc1ccccc1)=C(/N)N1CCCCC1	> 200	> 200 µM	
CC(=O)C(=Cc1ccc(F)cc1)C(C)=O	> 871	38 µM	
Cc1ccc2c(n1)C(N1CCC(C)CC1)=CC(=O)C2=O			inactive
CCCC[P+](CCCC)(CCCC)C(C(=O)OC)C(C(=O)OC)=C1SC(C(=O)OC)=C(C(=O)OC)S1 (stereo not given)	> 200	> 200 µM	
COC(=O)C(Cc1c[nH]c2ccccc12)NC(=O)C(Cc1cnc[nH]1)NC(=O)C1CCC(=O)N1C(=O)OCc1ccccc1 (stereo not given)	> 200	> 200 µM	
O=C(CCc1cc(-c2ccccc2)nc(=S)[nH]1)N(Cc1ccccc1)Cc1ccccc1			inactive
O=C(O)c1ccccc1-c1c2ccc(=O)c(I)c-2oc2c(I)c(O)ccc12	> 316	19.1 µM	
NS(=O)(=O)c1ccc(NC2=CC(=O)C(=O)c3ccccc32)cc1	> 30.2	> 30.2 µM	
CCOC(=O)Cc1csc(NC(NC(=O)OCC)(C(=O)OCC)C(F)(F)F)n1 (stereo not given)	> 200	> 200 µM	
O=S1(=O)C=Cc2ccccc2CC1	> 1290	741 µM	
CC(C#N)N(CCc1ccccc1)C(=O)c1ccccc1 (stereo not given)	> 200	> 200 µM	
Cc1ccc(N2C(=O)/C(=C/c3ccc(N(CCC#N)CCC#N)cc3C)N=C2c2cc([N+](=O)[O-])ccc2Cl)cc1			inactive
CC(=O)NC(Cc1ccccc1)C(=S)N1CCCC1 (stereo not given)	> 912	776 µM	
C/C(=N\N)C(CN1CCCCC1)C(c1ccccc1)c1c(O)c2ccccc2oc1=O (stereo not given)	> 107	69.2 µM	
C=C(C)c1ccc2c(c1)C(=O)C[C@@H]1[C@](C)(C#N)CCC[C@]21C	> 200	44.7 µM	
COC(=O)C(Cc1nc2ccccc2[nH]c1=O)/C(=N\NC(C)(C)C)C(=O)Nc1c(C)cc(Br)cc1C (stereo not given)	> 64.6	47.9 µM	

SMILES	EC50 [µM]	IC50	outcome
c1ccc(-c2nnc(CCCCCCCCc3nnc(-c4ccccc4)o3)o2)cc1	> 200	158 µM	
O=C1OCC(C(=O)c2cccc(O)c2)C1=O (stereo not given)			inactive
COc1ccc(-c2cc(-c3ccccc3)nc(N)c2-c2ccc3ccccc3c2)cc1	> 200	2.45 µM	
N/N=C(\c1nc2ccc([N+](=O)[O-])cc2[nH]c1=O)C(O)c1ccc(Cl)c(Cl)c1 (stereo not given)	> 339	145 µM	
CCOC(COc1c2occc2cc2ccc(=O)oc12)OCC	> 141	51.3 µM	
Cc1cccc2c1CC(C1OC(=O)c3ccccc31)C2=O (stereo not given)	> 100	> 100 µM	
CC(=O)Oc1ccn2nc(C)c(Cc3c(C)nn4ccc(OC(C)=O)cc34)c2c1	> 200	28.2 µM	
Clc1ccc(C2ON2C2CCCCC2)cc1 (stereo not given)			inactive
CNCCC=C1c2ccccc2CCc2ccccc21	> 200	28.8 µM and 33.1 µM	
O=C(CC(=O)N1N=C(n2ccc3ccccc32)CC1c1ccccc1)Nc1cccc(Cl)c1 (stereo not given)			inactive
NCCNc1ccc([N+](=O)[O-])c2c(=O)c3ccccc3[nH]c12			inactive
COc1cc2ccc(/C(C)=N/OC(C)=O)cc2cc1OC			inactive
CCOC(=O)[C@@H]1ON2O[C@@H](OC3CCCC3(c3ccccc3)c3ccccc3)C[C@H]3OC(=O)[C@@H]1C32 (stereo not given in full)	> 200	34.7 µM	
Cc1ccnc2[nH]c3ccccc3c(=O)c12	> 200	14.5 µM	
O=c1ssc2ncccc12	> 295	> 100 µM	
C#CCOCn1cc(C)c(=O)[nH]c1=O	> 200	> 200 µM	
NCS(=O)(=O)O	> 200	18.6 µM	
